Key:
[1] = Turbidity assay of relative solubility in aqueous buffers; format: physicochemical; details: for turbidity threshold (L, M, H) 1.4: pH 1.4 as headed (method: SGF pH 1.5); for turbidity threshold (L, M, H) 4.5: pH 4.5 (SIF); for turbidity threshold (L, M, H) 6.8: pH 6.8 (SIF); for turbidity threshold (L, M, H) 7.4: pH 7.4 (HEPES)
How it was run: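 DMSO stocks (25 mM) were serially diluted 1:1 and spiked into SGF pH 1.5 (0.5M NaCl), SIF pH 4.5 and 6.8 (0.05M NaH2PO4) or HEPES pH 7.4 (10 mM HEPES, 150 mM NaCl). Absorbance was read at 490, 535 and 650 nm. Value is the concentration crossing OD 0.01, averaged over the three wavelengths.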

BCR-KIT/BaF3 cells = BCR-KIT/BaF3 cells (Homo sapiens, UniProt P10721); experiment: BCR-KIT/BaF3 cell proliferation assay (ATPlite); format: cell-based; details: read-out: BCR/BaF3 (IC50 μM) Kit
BCR-KIT/BaF3 cells, sequence (P10721 26-976 limits assumed, change not shown): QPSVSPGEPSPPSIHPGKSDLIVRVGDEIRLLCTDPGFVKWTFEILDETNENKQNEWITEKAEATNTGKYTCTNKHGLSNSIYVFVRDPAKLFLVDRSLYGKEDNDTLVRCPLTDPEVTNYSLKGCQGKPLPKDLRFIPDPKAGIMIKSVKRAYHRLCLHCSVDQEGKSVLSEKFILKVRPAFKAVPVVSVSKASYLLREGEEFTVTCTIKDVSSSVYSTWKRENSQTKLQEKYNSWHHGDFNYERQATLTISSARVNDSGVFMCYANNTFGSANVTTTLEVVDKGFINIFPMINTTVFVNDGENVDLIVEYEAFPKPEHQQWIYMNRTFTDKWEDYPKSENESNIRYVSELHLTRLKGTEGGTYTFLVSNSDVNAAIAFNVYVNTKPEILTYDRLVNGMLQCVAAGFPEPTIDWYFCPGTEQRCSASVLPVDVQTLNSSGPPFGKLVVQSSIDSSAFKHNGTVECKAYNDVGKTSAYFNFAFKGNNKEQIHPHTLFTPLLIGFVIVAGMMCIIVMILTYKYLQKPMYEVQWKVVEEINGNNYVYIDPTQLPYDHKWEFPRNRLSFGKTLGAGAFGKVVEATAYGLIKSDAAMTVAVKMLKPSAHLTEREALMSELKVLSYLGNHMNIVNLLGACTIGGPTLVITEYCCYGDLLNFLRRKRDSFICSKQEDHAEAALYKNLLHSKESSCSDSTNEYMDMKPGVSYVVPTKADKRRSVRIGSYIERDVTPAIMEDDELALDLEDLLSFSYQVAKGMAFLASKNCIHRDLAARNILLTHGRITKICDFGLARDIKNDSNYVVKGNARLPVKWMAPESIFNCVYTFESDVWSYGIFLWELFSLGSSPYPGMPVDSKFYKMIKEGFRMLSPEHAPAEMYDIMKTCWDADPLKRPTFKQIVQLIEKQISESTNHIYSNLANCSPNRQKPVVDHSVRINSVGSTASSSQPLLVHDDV
How it was run: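 BCR-KIT/BaF3 cells plated at 10,000/well in G418-containing medium without IL-3/WEHI; MV-4-11 at 25,000/well in medium with 10% FBS. Compound given as 8-point 1:3 titration, top 10 μM final, 3 days at 37 °C. Viability read as ATPlite luminescence; IC50 from concentration curve.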

SMILES	turbidity threshold (L, M, H) 1.4 [1]	turbidity threshold (L, M, H) 4.5 [1]	turbidity threshold (L, M, H) 6.8 [1]	turbidity threshold (L, M, H) 7.4 [1]	IC50 (BCR-KIT/BaF3 cells) [µM]
COc1cnc2[nH]cc(Cc3ccc(NCc4cncc(F)c4)nc3F)c2c1 [Compound P-2028, [6-Fluoro-5-(5-methoxy-1H-pyrrolo[2,3-b]pyridin-3-ylmethyl)-pyridin-2-yl]-(5-fluoro-pyridin-3-ylmethyl)-amine]	H (high solubility if the threshold concentration is >250 μM)	M (moderate solubility if the threshold concentration is 31.3 μM to 250 μM)	M (moderate solubility if the threshold concentration is 31.3 μM to 250 μM)	M (moderate solubility if the threshold concentration is 31.3 μM to 250 μM)	> 0.1
COc1ccc(CNc2ccc(Cc3c[nH]c4ncc(C)cc34)c(F)n2)cn1 [Compound P-2029, [6-Fluoro-5-(5-methyl-1H-pyrrolo[2,3-b]pyridin-3-ylmethyl)-pyridin-2-yl]-(6-methoxy-pyridin-3-ylmethyl)-amine]	H (high solubility if the threshold concentration is >250 μM)	M (moderate solubility if the threshold concentration is 31.3 μM to 250 μM)	M (moderate solubility if the threshold concentration is 31.3 μM to 250 μM)	M (moderate solubility if the threshold concentration is 31.3 μM to 250 μM)	> 0.1
COc1cnc2[nH]cc(Cc3ccc(NCc4ccc(OC)nc4)nc3F)c2c1 [Compound P-2030, [6-Fluoro-5-(5-methoxy-1H-pyrrolo[2,3-b]pyridin-3-ylmethyl)-pyridin-2-yl]-(6-methoxy-pyridin-3-ylmethyl)-amine]	H (high solubility if the threshold concentration is >250 μM)	M (moderate solubility if the threshold concentration is 31.3 μM to 250 μM)	M (moderate solubility if the threshold concentration is 31.3 μM to 250 μM)	L (low solubility if the threshold concentration is <31.3 μM)	> 0.1
Cc1cnc2[nH]cc(Cc3ccc(NCc4ccc(C(F)(F)F)nc4)nc3F)c2c1 [Compound P-2031, [6-Fluoro-5-(5-methyl-1H-pyrrolo[2,3-b]pyridin-3-ylmethyl)-pyridin-2-yl]-(6-trifluoromethyl-pyridin-3-ylmethyl)-amine]	M (moderate solubility if the threshold concentration is 31.3 μM to 250 μM)	L (low solubility if the threshold concentration is <31.3 μM)	L (low solubility if the threshold concentration is <31.3 μM)	L (low solubility if the threshold concentration is <31.3 μM)	> 0.1
COc1cnc2[nH]cc(Cc3ccc(NCc4ccc(Cl)cc4)nc3F)c2c1 [Compound P-2032, (4-Chloro-benzyl)-[6-fluoro-5-(5-methoxy-1H-pyrrolo[2,3-b]pyridin-3-ylmethyl)-pyridin-2-yl]-amine]	M (moderate solubility if the threshold concentration is 31.3 μM to 250 μM)	L (low solubility if the threshold concentration is <31.3 μM)	L (low solubility if the threshold concentration is <31.3 μM)	L (low solubility if the threshold concentration is <31.3 μM)	< 0.1
COc1ccnc2[nH]cc(Cc3ccc(NCc4ccc(Cl)cc4)nc3F)c12 [Compound P-2037, (4-Chloro-benzyl)-[6-fluoro-5-(4-methoxy-1H-pyrrolo[2,3-b]pyridin-3-ylmethyl)-pyridin-2-yl]-amine]	M (moderate solubility if the threshold concentration is 31.3 μM to 250 μM)	L (low solubility if the threshold concentration is <31.3 μM)	L (low solubility if the threshold concentration is <31.3 μM)	L (low solubility if the threshold concentration is <31.3 μM)	> 0.1
COc1ccc(CNc2ncc(Cc3c[nH]c4ncc(Cl)cc34)cn2)cn1 [Compound P-2038, [5-(5-Chloro-1H-pyrrolo[2,3-b]pyridin-3-ylmethyl)-pyrimidin-2-yl]-(6-methoxy-pyridin-3-ylmethyl)-amine]	H (high solubility if the threshold concentration is >250 μM)	L (low solubility if the threshold concentration is <31.3 μM)	L (low solubility if the threshold concentration is <31.3 μM)	L (low solubility if the threshold concentration is <31.3 μM)	> 0.1
COc1ncccc1CNc1ccc(Cc2c[nH]c3ncccc23)c(F)n1 [Compound P-2045, [6-Fluoro-5-(1H-pyrrolo[2,3-b]pyridin-3-ylmethyl)-pyridin-2-yl]-(2-methoxy-pyridin-3-ylmethyl)-amine]	H (high solubility if the threshold concentration is >250 μM)	M (moderate solubility if the threshold concentration is 31.3 μM to 250 μM)	M (moderate solubility if the threshold concentration is 31.3 μM to 250 μM)	M (moderate solubility if the threshold concentration is 31.3 μM to 250 μM)	> 0.1
COc1ncccc1CNc1ccc(Cc2c[nH]c3ncc(C)cc23)c(F)n1 [Compound P-2052, [6-Fluoro-5-(5-methyl-1H-pyrrolo[2,3-b]pyridin-3-ylmethyl)-pyridin-2-yl]-(2-methoxy-pyridin-3-ylmethyl)-amine]	H (high solubility if the threshold concentration is >250 μM)	L (low solubility if the threshold concentration is <31.3 μM)	L (low solubility if the threshold concentration is <31.3 μM)	L (low solubility if the threshold concentration is <31.3 μM)	> 0.1
COc1ccc(CNc2ncc(Cc3c[nH]c4ncc(C)cc34)cn2)cn1 [Compound P-2057, (6-Methoxy-pyridin-3-ylmethyl)-[5-(5-methyl-1H-pyrrolo[2,3-b]pyridin-3-ylmethyl)-pyrimidin-2-yl]-amine]	H (high solubility if the threshold concentration is >250 μM)	L (low solubility if the threshold concentration is <31.3 μM)	L (low solubility if the threshold concentration is <31.3 μM)	M (moderate solubility if the threshold concentration is 31.3 μM to 250 μM)	> 0.1
COc1ncc(F)cc1CNc1ncc(Cc2c[nH]c3ncc(C)cc23)cn1 [Compound P-2061, (5-Fluoro-2-methoxy-pyridin-3-ylmethyl)-[5-(5-methyl-1H-pyrrolo[2,3-b]pyridin-3-ylmethyl)-pyrimidin-2-yl]-amine]	H (high solubility if the threshold concentration is >250 μM)	M (moderate solubility if the threshold concentration is 31.3 μM to 250 μM)	M (moderate solubility if the threshold concentration is 31.3 μM to 250 μM)	L (low solubility if the threshold concentration is <31.3 μM)	> 0.1
Cc1cnc2[nH]cc(Cc3ccc(NCc4cnccc4C(F)(F)F)nc3F)c2c1 [Compound P-2062, [6-Fluoro-5-(5-methyl-1H-pyrrolo[2,3-b]pyridin-3-ylmethyl)-pyridin-2-yl]-(4-trifluoromethyl-pyridin-3-ylmethyl)-amine]	H (high solubility if the threshold concentration is >250 μM)	L (low solubility if the threshold concentration is <31.3 μM)	L (low solubility if the threshold concentration is <31.3 μM)	L (low solubility if the threshold concentration is <31.3 μM)	> 0.1
COc1ncc(F)cc1CNc1ncc(Cc2c[nH]c3ncc(Cl)cc23)cn1 [Compound P-2064, [5-(5-Chloro-1H-pyrrolo[2,3-b]pyridin-3-ylmethyl)-pyrimidin-2-yl]-(5-fluoro-2-methoxy-pyridin-3-ylmethyl)-amine]	H (high solubility if the threshold concentration is >250 μM)	M (moderate solubility if the threshold concentration is 31.3 μM to 250 μM)	L (low solubility if the threshold concentration is <31.3 μM)	L (low solubility if the threshold concentration is <31.3 μM)	> 0.1
COc1cc(CNc2ccc(Cc3c[nH]c4ncc(C)cc34)c(F)n2)c(F)cn1 [Compound P-2071, (5-Fluoro-2-methoxy-pyridin-4-ylmethyl)-[6-fluoro-5-(5-methyl-1H-pyrrolo[2,3-b]pyridin-3-ylmethyl)-pyridin-2-yl]-amine]	M (moderate solubility if the threshold concentration is 31.3 μM to 250 μM)	L (low solubility if the threshold concentration is <31.3 μM)	L (low solubility if the threshold concentration is <31.3 μM)	L (low solubility if the threshold concentration is <31.3 μM)	> 0.1

— patent US9096593B2, “Compounds and methods for kinase modulation, and indications therefor” (Plexxikon Inc., priority 2009, dated 2015)
